Test results reported in patent publication US8178579B2, “Dioxanes and uses thereof” (President and Fellows of Harvard College, priority 2001, dated 2012).
Entries after “also recorded” stand apart in the source; their conditions may differ.

Experiments:
[1] = test system: α-tubulin acetylation in the presence of ITSA1; test: ITSA1+AcTubulin assay: suppression of induced acetylation by ITSA1; assay type: cell-based, human; conditions: ITSA1 50 μM, A549 cells
Experimental: A549 cells were seeded at a density of 4,000 cells/50 μl in DMEM+ in white tissue culture-treated 384-well plates (Nalge Nunc) using a Multidrop 384 liquid dispenser (Labsystems). Library small molecules were pinned twice (100-150 nl/pin) from ˜1 mM stock solutions (DMSO) and incubated for 18 hours. For the ITSA1+AcTubulin assay, ITSA1 (50 μM) was added four hours after pin-transfer of library molecules. Media was aspirated with a 16-channel wand. […] Plates were read on an Analyst plate reader (LJL Biosystems) with an integration time of 0.1 seconds.
Bromodeoxyuridine labeling and fluorescence-activated cell sorting (FACS) were performed as described (K. M. Koeller et al., Chemistry & Biology, 10 (5) (2003) pp. 397-410). […]

HDAC6 = test: acetylated α-tubulin and HDAC6 immunofluorescence in control (Neo) and HDAC6-overexpressing fibroblasts; assay type: cell-based, mouse; conditions: tubacin 2 μM, 4 h
Experimental: All cells were cultured at 37° C. in a humidified incubator supplemented with 5% carbon dioxide. […] Mouse NIH-3T3 wild-type (Neo), HDAC6, HDAC6 double mutant, and HDAC1 overexpressing cells (gift from C. Hubbert, Duke University) were cultured as described (C. Hubbert et al., Nature 417, 455 (2002)1).
Detection of acetylated α-tubulin and acetylated histones by immunofluorescence was performed as described in Example 6 above. […] HDAC6 was detected using a rabbit polyclonal antibody (1:250-1:750; C.M.G., unpublished data) under the conditions used to detect acetylated α-tubulin (See Example 6 above). […] Images for these experiments were collected on a Zeiss LSM510 confocal scanning laser microscope at the appropriate wavelengths using the accompanying software and processed with Adobe Photoshop.

NIH-3T3 cells = test: Transwell cell migration assay; assay type: cell-based, mouse; conditions: wild-type (Neo) and HDAC6-overexpressing cells, 22 h; tubacin 2-20 μM, niltubacin 20 μM
Experimental: For Transwell migration assays, wild-type or HDAC6 overexpressing NIH-3T3 cells were seeded (150,000 cells/well) in the upper chamber (uncoated polycarbonate membrane, 6.5 mm, 8 μm) in DMEM+ media with compounds added as indicated. After incubation (22 hours), non-migrated cells were removed using cotton swabs and remaining cells stained in Harris Hematoxylin solution. For each treatment, cells within a region (spanning the maximum diameter) of three separate membranes were counted under low magnification on a Leitz Laborlux microscope. For DMSO treatments the average count was ˜600 cells/region. Images were obtained using a Hitachi HV-C12 CCD camera.

## O=C(CCCCCCC(=O)Nc1ccc([C@@H]2OC(c3ccc(CO)cc3)C[C@H](CSc3nc(-c4ccccc4)c(-c4ccccc4)o3)O2)cc1)NO (stereo partly shown) [tubacin]
[1]
  suppression of the induced acetylation by ITSA1: partially suppressed by ITSA1
HDAC6; NIH-3T3 (Neo)
  co-localization of HDAC6 with acetylated microtubules: Increased co-localization of HDAC6 with acetylated α-tubulin; also recorded: caused an increase in the co-localization of HDAC6 along acetylated microtubules
HDAC6
  α-tubulin acetylation in control (Neo) versus HDAC6-overexpressing NIH-3T3 cells: Decreased α-tubulin acetylation upon tubacin (2 μM) treatment (4 h) of HDAC6 overexpressing compared to control (Neo) NIH-3T3 cells; also recorded: induced an increase in α-tubulin acetylation; also recorded: decreased tubucin-induced α-tubulin acetylation
NIH-3T3 cells
  cell migration: inhibited the migration of wild-type (Neo) NIH-3T3 cells; also recorded: inhibited the migration of both wild-type and HDAC6-overexpressing cells
